Test results from ChEMBL document CHEMBL1139131, “Lead optimization of 5,6-diarylpyridines as CB1 receptor inverse agonists” (Bioorg Med Chem Lett, 2007).

How the values were obtained:
Cannabinoid receptor 2 = Cannabinoid receptor 2 (Homo sapiens, UniProt P34972)
Description: Binding affinity at CB2 receptor

in vivo [1] = details: Sprague-Dawley, rat
Description: Bioavailability in Sprague-Dawley rat

in vivo [2] = details: Sprague-Dawley, rat, brain, iv
Description: Ratio of drug level in brain to plasma in iv dosed Sprague-Dawley rat after 0.25 hr

in vivo [3] = details: Sprague-Dawley, rat; remark: listed apart in the source
Description: Volume of distribution in Sprague-Dawley rat

in vivo [4] = details: Sprague-Dawley, rat, brain, iv; remark: listed apart in the source
Description: Ratio of drug level in brain to plasma in iv dosed Sprague-Dawley rat after 4 hrs

in vivo [5] = details: Sprague-Dawley, rat; remark: listed apart in the source
Description: Plasma clearance in Sprague-Dawley rat

in vivo [6] = details: Sprague-Dawley, rat; remark: listed apart in the source
Description: Half life in Sprague-Dawley rat

Chain of Cannabinoid receptor 2 (P34972 whole entry): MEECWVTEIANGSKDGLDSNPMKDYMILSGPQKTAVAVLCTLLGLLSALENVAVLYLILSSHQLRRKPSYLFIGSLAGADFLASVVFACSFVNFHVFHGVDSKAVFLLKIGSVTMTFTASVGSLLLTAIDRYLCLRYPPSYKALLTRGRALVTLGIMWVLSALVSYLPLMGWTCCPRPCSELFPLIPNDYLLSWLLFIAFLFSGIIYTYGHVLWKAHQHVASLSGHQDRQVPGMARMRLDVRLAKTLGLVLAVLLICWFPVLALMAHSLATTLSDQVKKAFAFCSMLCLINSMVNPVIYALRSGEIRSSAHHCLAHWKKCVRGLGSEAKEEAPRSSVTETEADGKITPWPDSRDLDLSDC

In the case of Cn1cc(-c2nc(-c3ccccc3Cl)c(-c3ccc(Cl)cc3)cc2C#N)cn1, the IC50 (Cannabinoid receptor 2) is reported as 3.3 µM.

Molecule N#Cc1cc(-c2ccc(Cl)cc2)c(-c2ccccc2Cl)nc1Oc1ccc(F)c(F)c1 has an IC50 (Cannabinoid receptor 2) of 5.7 µM.

Work on N#Cc1cc(-c2ccc(Cl)cc2)c(-c2ccc(Cl)cc2Cl)nc1Oc1cccc(F)c1 yielded an IC50 (Cannabinoid receptor 2) of 2.3 µM.

N#Cc1cc(-c2ccc(Cl)cc2)c(-c2ccc(Cl)cc2Cl)nc1OCCNC(=O)C1CCC1 gave an IC50 (Cannabinoid receptor 2) of 0.45 µM.

N#Cc1cc(-c2ccc(Cl)cc2)c(-c2ccccc2Cl)nc1-c1cccnc1 showed an IC50 (Cannabinoid receptor 2) of 3.7 µM.

N#Cc1cc(-c2ccc(Cl)cc2)c(-c2ccccc2Cl)nc1N1CCN(S(=O)(=O)c2cc(F)cc(F)c2)CC1 showed an IC50 (Cannabinoid receptor 2) of 1.4 µM.

In the case of CC(C)CNc1nc(-c2ccc(Cl)cc2Cl)c(-c2ccc(Cl)cc2)cc1C#N, the IC50 (Cannabinoid receptor 2) is reported as 1.8 µM.

Molecule N#Cc1cc(-c2ccc(Cl)cc2)c(-c2ccc(Cl)cc2Cl)nc1Nc1ccc(F)cc1 has an IC50 (Cannabinoid receptor 2) of 2.8 µM.

In the case of N#Cc1cc(-c2ccc(Cl)cc2)c(-c2ccc(Cl)cc2Cl)nc1Oc1ccc(F)c(F)c1, the bioavailability (in vivo [1]) is reported as 66%, the Kp at […] (in vivo [2]) is reported as 0.1 and the Vd (in vivo [3]) is reported as 1.5 L/kg. For the same molecule, the IC50 (Cannabinoid receptor 2) was 4.1 µM, the Kp at 4 h (in vivo [4]) was 0.61 and the clearance (in vivo [5]) was 3.5 mL/min/kg. The half-life (in vivo [6]) was 5.6 h.

CC(C)NC(=O)c1cc(-c2ccc(Cl)cc2)c(-c2ccc(Cl)cc2Cl)nc1Oc1ccc(F)c(F)c1 gave an IC50 (Cannabinoid receptor 2) of 1.6 µM.

In the case of N#Cc1cc(-c2ccc(Cl)cc2)c(-c2ccc(Cl)cc2Cl)nc1N1CCCCC1, the IC50 (Cannabinoid receptor 2) is reported as 4 µM.

With N#Cc1cc(-c2ccc(Cl)cc2)c(-c2ccc(Cl)cc2Cl)nc1OC1CCOC1 (configuration not stated) the IC50 (Cannabinoid receptor 2) was 0.73 µM.

Work on CC(C)Oc1nc(-c2ccc(Cl)cc2Cl)c(-c2ccc(Cl)cc2)cc1C#N yielded an IC50 (Cannabinoid receptor 2) of 0.86 µM.

With CN(C)NC(=O)c1cc(-c2ccc(Cl)cc2)c(-c2ccc(Cl)cc2Cl)nc1Oc1ccc(F)c(F)c1 the bioavailability (in vivo [1]) was 26%, the Kp at […] (in vivo [2]) was 1.2 and the Vd (in vivo [3]) was 6.7 L/kg. The IC50 (Cannabinoid receptor 2) was 1.8 µM, the Kp at 4 h (in vivo [4]) was 3 and the clearance (in vivo [5]) was 24 mL/min/kg. It also gave a half-life (in vivo [6]) of 4.1 h.

Molecule N#Cc1cc(-c2ccc(Cl)cc2)c(-c2ccccc2Cl)nc1-c1cncnc1 has an IC50 (Cannabinoid receptor 2) of 4.3 µM.

In the case of COc1ccc(Oc2nc(-c3ccc(Cl)cc3Cl)c(-c3ccc(Cl)cc3)cc2C#N)cc1, the IC50 (Cannabinoid receptor 2) is reported as 3.8 µM.

In the case of CC(C)(C)C(=O)Nc1nc(-c2ccc(Cl)cc2Cl)c(-c2ccc(Cl)cc2)cc1C#N, the IC50 (Cannabinoid receptor 2) is reported as 1.7 µM.

For N#Cc1cc(-c2ccc(Cl)cc2)c(-c2ccc(Cl)cc2Cl)nc1Oc1cc(Cl)cc(Cl)c1, the IC50 (Cannabinoid receptor 2) was 5.6 µM.

Work on CC(C)(C)C#Cc1nc(-c2ccccc2Cl)c(-c2ccc(Cl)cc2)cc1C#N yielded an IC50 (Cannabinoid receptor 2) of 2.1 µM.

N#Cc1cc(-c2ccc(Cl)cc2)c(-c2ccc(Cl)cc2Cl)nc1OCC1CCOC1 (configuration not stated) gave an IC50 (Cannabinoid receptor 2) of 0.43 µM.

For N#Cc1cc(-c2ccc(Cl)cc2)c(-c2ccc(Cl)cc2Cl)nc1Sc1ccc(F)cc1, the IC50 (Cannabinoid receptor 2) was 5.2 µM.

With CNN(C)C(=O)c1cc(-c2ccc(Cl)cc2)c(-c2ccc(Cl)cc2Cl)nc1Oc1ccc(F)c(F)c1 the IC50 (Cannabinoid receptor 2) was 0.65 µM.

Molecule N#Cc1cc(-c2ccc(Cl)cc2)c(-c2ccc(Cl)cc2Cl)nc1Oc1ccc(F)cc1 has an IC50 (Cannabinoid receptor 2) of 4.4 µM.

CC(C)(O)C#Cc1nc(-c2ccccc2Cl)c(-c2ccc(Cl)cc2)cc1C#N gave an IC50 (Cannabinoid receptor 2) of 1.8 µM.

CC(C)(C)N1CCN(c2nc(-c3ccccc3Cl)c(-c3ccc(Cl)cc3)cc2C#N)CC1 gave an IC50 (Cannabinoid receptor 2) of 2.6 µM.

N#Cc1cc(-c2ccc(Cl)cc2)c(-c2ccc(Cl)cc2Cl)nc1Oc1cccc(Cl)c1 gave an IC50 (Cannabinoid receptor 2) of 4.1 µM.

N#Cc1cc(-c2ccc(Cl)cc2)c(-c2ccc(Cl)cc2Cl)nc1Oc1cc(F)cc(F)c1 showed an IC50 (Cannabinoid receptor 2) of 0.32 µM.

For CCC(N)(C#Cc1nc(-c2ccccc2Cl)c(-c2ccc(Cl)cc2)cc1C#N)CC, the IC50 (Cannabinoid receptor 2) was 1.1 µM.

With N#Cc1cc(-c2ccc(Cl)cc2)c(-c2ccc(Cl)cc2Cl)nc1NC(=O)c1ccc(F)c(F)c1 the IC50 (Cannabinoid receptor 2) was 0.315 µM.

Molecule CC(C)N1CCN(c2nc(-c3ccccc3Cl)c(-c3ccc(Cl)cc3)cc2C#N)C(=O)C1=O has an IC50 (Cannabinoid receptor 2) of 0.715 µM.

Work on NC(=O)c1cc(-c2ccc(Cl)cc2)c(-c2ccc(Cl)cc2Cl)nc1Oc1ccc(F)c(F)c1 yielded an IC50 (Cannabinoid receptor 2) of 4.9 µM.

For N#Cc1cc(-c2ccc(Cl)cc2)c(-c2ccc(Cl)cc2Cl)nc1-n1nnc2ccccc21, the IC50 (Cannabinoid receptor 2) was 0.465 µM.

N#Cc1cc(-c2ccc(Cl)cc2)c(-c2ccc(Cl)cc2Cl)nc1-n1ccnc1 gave an IC50 (Cannabinoid receptor 2) of 0.31 µM.

For CC(C)(C)C(=O)N1CCN(c2nc(-c3ccccc3Cl)c(-c3ccc(Cl)cc3)cc2C#N)CC1, the IC50 (Cannabinoid receptor 2) was 1.1 µM.

Molecule N#Cc1cc(-c2ccc(Cl)cc2)c(-c2ccc(Cl)cc2Cl)nc1Oc1ccc(Cl)cc1 has an IC50 (Cannabinoid receptor 2) of 4.2 µM.
